Data as given in PubChem BioAssay (NCI).
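Interpolation was linear, between the two tested concentrations surrounding the appropriate level; five concentrations were tested over 48 hours in 96-well plates. TGI: concentration producing complete growth inhibition.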

Assays:
Assay in all cases: growth of human tumour cells (NCI), 48 h
K-562 leukemia = tested on: K-562 leukemia
SW-620 colon = tested on: SW-620 colon
OVCAR-3 ovarian = tested on: OVCAR-3 ovarian
SNB-75 CNS = tested on: SNB-75 CNS
SF-268 CNS = tested on: SF-268 CNS
SR leukemia = tested on: SR leukemia
MOLT-4 leukemia = tested on: MOLT-4 leukemia
M14 melanoma = tested on: M14 melanoma
UACC-62 melanoma = tested on: UACC-62 melanoma
A498 renal = tested on: A498 renal
OVCAR-8 ovarian = tested on: OVCAR-8 ovarian

SMILES	TGI (K-562 leukemia) [µM]	TGI (SW-620 colon) [µM]	TGI (OVCAR-3 ovarian) [µM]	TGI (SNB-75 CNS) [µM]	TGI (SF-268 CNS) [µM]	TGI (SR leukemia) [µM]	TGI (MOLT-4 leukemia) [µM]	TGI (M14 melanoma) [µM]	TGI (UACC-62 melanoma) [µM]	TGI (A498 renal) [µM]	TGI (OVCAR-8 ovarian) [µM]
O=C1c2ccccc2-c2nc(/C=C/c3ccccc3)cc3c2c1nc1ccccc13	32.2	85.6	3.95	47.7	> 100	50.6	> 100	> 100	25.7	> 100	> 100
Clc1nc(Cl)c(CBr)c(Cl)n1	> 23.5	3.99	13.3	24.8	23.1	> 100	> 23	8.38	11.4	32.1	10.2
CC1(C)CC2(C)CC1CC2NC(=O)CCN1CCOCC1 (stereo unspecified)	> 100	> 100	> 100	> 100	> 100	> 100	> 100	> 100	> 100	> 100	> 100
CC(=O)O[C@H]1C[C@H]2C(=S)Nc3ccccc3C(=S)N2C1	> 100	> 100	> 100	> 100	> 100	> 100	> 100	> 100	> 100	> 100	> 100
Clc1ncc(Cl)c(Cl)n1	4.08	2.94	14.3	9.98	20.5	5.62	4.31	10.6	4.42	40.2	19.3
O=C(N/N=C\c1ccccc1)Nc1cccc2ccccc12	> 100	> 100	> 100	> 100	> 100	> 100	> 100	49.1	> 100	88.9	> 100
